What was measured:
HIV-1 RT enzyme = HIV-1 RT enzyme (Human immunodeficiency virus type 1 group M subtype B, UniProt P04585); test: Assay for inhibition of HIV reverse transcriptase (RNA-dependent DNA polymerase, SPA); type: biochemical; settings: HIV-1 RT enzyme 1 nM, 1 hour at 37° C.
Experimental: (§1) 100 μL reaction mixtures were initiated with a combination of primer-template substrate (10 nM final concentration) and dNTPs (0.6 μM dNTPs, 0.75 μM [^3H]-dGTP). The heterodimeric nucleic acid substrate was generated by annealing the DNA primer pD500 (described in Shaw-Reid et al., J. Biol. Chem., 278: 2777-2780; obtained from Integrated DNA Technologies) to t500, a 500 nucleotide RNA template created by in vitro transcription (see Shaw-Reid et al., J. Biol. Chem., 278: 2777-2780). After 1 hour incubation at 37° C., reactions were quenched by 10 μL streptavidin scintillation proximity assay beads (10 mg/mL, from Amersham Biosciences) in 0.5 M EDTA, pH 8. Microtiter plates were incubated an additional 10 minutes at 37° C. prior to quantification via Topcount (Packard).

[1] = system: acute HIV infection of T-lymphoid cells; test: Assay for inhibition of HIV replication (spread assay); type: cell-based; settings: Human immunodeficiency virus 1; inhibition of HIV replication in T-lymphoid cells
Experimental: An assay for the inhibition of acute HIV infection of T-lymphoid cells (alternatively referred to herein as the “spread assay”) was conducted in accordance with Vacca, J. P. et al., Proc. Natl. Acad. Sci. USA 1994, 91: 4096. […] The compounds of Examples 2-4 and 22 were not tested.

[2] = target: T1, mutant HIV reverse transcriptase, Y181C mutation (Human immunodeficiency virus type 1 group M subtype B, UniProt P04585, Y768C); test: Analogous RT inhibition assay, Y181C mutant; type: biochemical; settings: Y181C mutant RT; tested up to 20 micromolar; read-out: IC50, Y181C mutant assay
T1 construct: made in house
Experimental: as §1
(§2) Analogous assays were conducted substituting mutant HIV strains to determine the […] inhibition of compounds of the present invention against mutant HIV reverse transcriptase. In one strain the reverse transcriptase has the Y181C mutation and in the other strain the reverse transcriptase has the K103N mutation. The mutations were generated with the […] site-directed mutagenesis kit (Stratagene).

[3] = target: T2, mutant HIV reverse transcriptase, K103N mutation (Human immunodeficiency virus type 1 group M subtype B, UniProt P04585, K690N); test: Analogous RT inhibition assay, K103N mutant; type: biochemical
T2 construct: made in house
Experimental: as §1, §2

Row | SMILES | IC50 (HIV-1 RT enzyme) | IC95 [1] | IC50 [2] | IC50 [3]
1 | O=S(=O)(c1ccccc1)c1c(-c2ncc(-c3ccncc3)s2)[nH]c2ccc(Cl)cc12 [Example 2, 5-chloro-3-(phenylsulfonyl)-2-(5-pyridin-4-yl-1,3-thiazol-2-yl)-1H-indole] | 4000 nM | – | – | –
2 | Cc1cnc(-c2[nH]c3ccc(Cl)cc3c2S(=O)(=O)CC2CCC2)[nH]1 [Example 34, 5-Chloro-3-[(cyclobutylmethyl)sulfonyl]-2-(5-methyl-1H-imidazol-2-yl)-1H-indole] | – | < 1000 nM | < 1000 nM | > 3000 nM
3 | Cc1cnc(-c2[nH]c3ccc(Cl)cc3c2S(=O)(=O)C2CCCC2)[nH]1 [Example 35, 5-chloro-3-[(cyclopentyl)sulfonyl]-2-(5-methyl-1H-imidazol-2-yl)-1H-indole] | – | < 1000 nM | < 1000 nM | < 1000 nM
4 | CCC(CC)S(=O)(=O)c1c(-c2ncc(C)[nH]2)[nH]c2ccc(Cl)cc12 [Example 37, 5-chloro-3-[(pent-3-yl)sulfonyl]-2-(5-methyl-1H-imidazol-2-yl)-1H-indole] | – | < 1000 nM | < 1000 nM | > 10000 nM

Reference: US20100168097A1, “Non-Nucleoside Reverse Transcriptase Inhibitors” (priority 2005, published 2010)
